The values that follow come from US8937091B2 (Japan Science and Technology Agency, priority 2009, dated 2015).

For test [1], the system named is SOCE (store operated calcium entry) in CHO cells. Kind of test: Assay of SOCE (store operated calcium entry)-inhibiting action. It is filed as cell-based, Chinese hamster. The following applies: Cricetulus griseus, CHO, CHO cells, thapsigargin, read-out: SOCE level (percentage of inhibition); for inhibition at 10 µM: test compound 10 μmol; for inhibition at 30 µM: test compound 30 μmol; for inhibition at 100 µM: test compound 100 μmol. The gist of the method:
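CHO cells in calcium-free BSS received compound, then 1 μM thapsigargin 2 min later to deplete stores; after 9 min, 2 mM calcium chloride (final) added. Percent inhibition of the rise in intracellular calcium determined at various compound concentrations.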

Test [2] deals with IICR (IP3 induced calcium release) in CHO cells. Kind of test: Assay of IICR (IP3 induced calcium release)-inhibiting action. The conditions noted are these: CHO cells, 10 μM ATP; for inhibition at 10 µM / inhibition at 30 µM / inhibition at 100 µM: Cricetulus griseus, CHO, read-out: IICR level (percentage of inhibition); for inhibition at 100 µM: test compound 100 μmol. It is filed as cell-based, Chinese hamster. The gist of the method: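 Inhibition (%) of the intracellular calcium increase triggered by 10 μM ATP, measured in CHO cells in BSS with calcium. Compound given 1 min after the buffer exchange and 2 min before ATP; values reported per compound concentration.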

Regarding `O=C(CCN(CCO)Cc1ccccc1)c1ccc(Cl)s1` [Example 268, 2-(N-benzyl-2-hydroxyethyl)aminoethyl-5-chloro-2-thiophenylketone], the results for the inhibition at 10 µM in test [1] and in test [2] (test compound 10 μmol) were 10% and 0%, respectively. Moreover, the inhibition at 30 µM in test [1] and in test [2] (test compound 30 μmol) was 0% in each case. In addition, the inhibition (in general, the change of the read-out against control, counted positive when it falls) at 100 µM came to 10% in test [1] and 70% in test [2].
For the molecule `O=C(CCNCCCO)c1cnccn1` [Example 270, 2-(N-hydroxypropyl)aminoethyl-2-pyrazylketone], the values for the inhibition at 30 µM in test [1] and in test [2] (test compound 30 μmol) were 10% and 0%, respectively. The inhibition at 100 µM was found to be 30% in test [1] and 10% in test [2]. In test [2] (test compound 10 μmol), the inhibition at 10 µM is 20%.
For the molecule `O=C(CCNCc1ccccc1)c1ccncc1` [Example 271, 2-(N-benzyl)aminoethyl-4-pyridylketone], the inhibition at 30 µM in test [1] and in test [2] (test compound 30 μmol) was 0% throughout. The results for the inhibition at 100 µM in test [1] and in test [2] were 10% and 40%, respectively. Also, the inhibition at 10 µM in test [2] (test compound 10 μmol) is 10%.
For the molecule `O=C(CCNC(c1ccccc1)C(O)c1ccccc1)c1ccco1` (stereo not drawn) [Example 272, 2-(N-1,2-diphenyl-2-hydroxyethyl)aminoethyl-2-furylketone], the inhibition at 30 µM in test [1] and in test [2] (test compound 30 μmol) was 20% each time. Moreover, the values for the inhibition at 100 µM in test [1] and in test [2] were 40% and 20%, respectively. Also, the inhibition at 10 µM in test [2] (test compound 10 μmol) came out at 40%.
For the molecule `O=C(CCNCCN(CCO)CCC(=O)c1cnccn1)c1cnccn1` [Example 273, N,N-bis(2-pyrazoylethyl)-N-hydroxyethylethylenediamine], the inhibition at 30 µM in test [1] turned out to be 0%; in test [2] (test compound 30 μmol) it was 30%. The inhibition at 100 µM in test [1] was found to be 10%; in test [2] it was 20%. In addition, the inhibition at 10 µM in test [2] (test compound 10 μmol) turned out to be 40%.
For `O=C(CCNCCO)c1ccco1` [Example 275, 2-(N-2-hydroxyethyl)aminoethyl-2-furylketone], in that order: 0%, 30%, 0%, 30% and 30%.
The matching figures for `O=C(CCNCCCCNCCC(=O)c1cnccn1)c1cnccn1` [Example 276, N,N-bis(2-pyrazoylethyl)tetramethylenediamine]: 0%, 0%, 0%, 20% and 0%.
For `O=C(CCN(CCO)CCO)c1ccc(Cl)s1` [Example 277, 2-bis(N-2-hydroxyethyl)aminoethyl-5-chloro-2-thienylketone], in that order: 0%, 0%, 0%, 20% and 0%.
Turning to `CCN(CCC(=O)c1ccc(Cl)s1)Cc1ccccc1` [Example 278, 2-(N-ethylbenzyl)aminoethyl-5-chloro-2-thienylketone], the inhibition at 30 µM amounted to 30% in test [1] and 20% in test [2] (test compound 30 μmol). In addition, the inhibition at 100 µM amounted to 40% in test [1] and 60% in test [2]. Besides, in test [2] (test compound 10 μmol), the inhibition at 10 µM turned out to be 30%.
In the case of `CN(CCC(=O)c1ccc(Cl)s1)Cc1ccccc1` [Example 279, 2-(N-methylbenzyl)aminoethyl-5-chloro-2-thienylketone], the inhibition at 30 µM in test [1] was found to be 30%; in test [2] (test compound 30 μmol) it was 0%. Moreover, the inhibition at 100 µM in test [1] and in test [2] was 40% in each case. Further, the inhibition at 10 µM in test [2] (test compound 10 μmol) stood at 20%.
As for `CC(C)(C)N(CCC(=O)c1ccc(Cl)s1)Cc1ccccc1` [Example 280, 2-(N-t-butylbenzyl)aminoethyl-5-chloro-2-thienylketone], the figures for the inhibition at 30 µM in test [1] and in test [2] (test compound 30 μmol) were 0% and 60%, respectively. The inhibition at 100 µM in test [1] stood at 30%; in test [2], 70%. Moreover, the inhibition at 10 µM in test [2] (test compound 10 μmol) came out at 50%.
For `CC(O)CNCCC(=O)c1cnccn1` (stereo not drawn) [Example 281, 2-(N-2-hydroxypropyl)aminoethyl-2-pyrazylketone], in that order: 0%, 20%, 0%, 50% and 20%.
In the case of `O=C(CCN1CCCC1CO)c1cnccn1` (stereo not drawn) [Example 282, 2-(2-hydroxymethylpyrrolidino)ethyl-2-pyrazylketone], the inhibition at 30 µM in test [1] was 0%; in test [2] (test compound 30 μmol), 20%. Further, the values for the inhibition at 100 µM in test [1] and in test [2] were 0% and 50%, respectively. Also, the inhibition at 10 µM in test [2] (test compound 10 μmol) turned out to be 0%.
As to `CC(C)N(CCC(=O)c1cc2ccccc2s1)Cc1ccccc1` [Example 283, 2-(N-isopropylbenzyl)aminoethyl-2-benzothienylketone], the results for the inhibition at 30 µM in test [1] and in test [2] (test compound 30 μmol) were 0% and 80%, respectively. Besides, the inhibition at 100 µM in test [1] was 40%; in test [2], 50%. In addition, in test [2] (test compound 10 μmol), the inhibition at 10 µM was found to be 50%.
`CC(C)N(CCO)CCC(=O)c1cc2ccccc2s1` [Example 284, 2-(N-isopropyl-2-hydroxyethyl)aminoethyl-2-benzothienylketone]: the inhibition at 30 µM in test [1] and in test [2] (test compound 30 μmol) was 0% throughout. In addition, the inhibition at 100 µM in test [1] came out at 0%; in test [2], 40%. The inhibition at 10 µM in test [2] (test compound 10 μmol) turned out to be 0%.
On to `CC(C)(C)N(CCC(=O)c1cc2ccccc2s1)Cc1ccccc1` [Example 285, 2-(N-t-butylbenzyl)aminoethyl-2-benzothienylketone], for which the inhibition at 30 µM in test [1] came to 0%; in test [2] (test compound 30 μmol), 80%. For the same molecule, the inhibition at 100 µM in test [1] was 50%; in test [2], 60%. Moreover, in test [2] (test compound 10 μmol), the inhibition at 10 µM worked out at 50%.
Turning to `CCN(CCC(=O)c1nccs1)Cc1ccccc1` [Example 289, 2-(N-ethylbenzyl)aminoethyl-2-thiazolylketone], the inhibition at 30 µM in test [1] turned out to be 0%; in test [2] (test compound 30 μmol), 80%. The inhibition at 100 µM in test [1] was 10%; in test [2], 100%. In addition, the inhibition at 10 µM in test [2] (test compound 10 μmol) was found to be 40%.
The matching figures for `O=C(CCN(CCO)Cc1ccccc1)c1nccs1` [Example 290, 2-(N-2-hydroxyethylbenzyl)aminoethyl-2-thiazolylketone]: 0%, 60%, 0%, 90% and 40%.
Consider `CN(CCO)CCC(=O)c1nccs1` [Example 291, 2-(N-2-hydroxyethylmethyl)aminoethyl-2-thiazolylketone], for which the values for the inhibition at 10 µM in test [1] and in test [2] (test compound 10 μmol) were 0% and 40%, respectively. For the same molecule, the inhibition at 30 µM was determined as 0% in test [1] and 70% in test [2] (test compound 30 μmol). The results for the inhibition at 100 µM in test [1] and in test [2] were 0% and 100%, respectively.
With `CC(C)N(CCC(=O)c1ccc(Br)s1)Cc1ccccc1` [Example 292, 2-(N-isopropylbenzyl)aminoethyl-5-bromo-2-thienylketone], the inhibition at 10 µM in test [1] was found to be 0%; in test [2] (test compound 10 μmol), 50%. In addition, the values for the inhibition at 30 µM in test [1] and in test [2] (test compound 30 μmol) were 20% and 80%, respectively. The inhibition at 100 µM in test [1] is 40%; in test [2] it was 90%.
Regarding `CCCCN(CCO)CCC(=O)c1ccc(Br)s1` [Example 293, 2-(N-2-hydroxyethylbutyl)aminoethyl-5-bromo-2-thienylketone], the inhibition at 10 µM in test [1] was 0%; in test [2] (test compound 10 μmol), 80%. The inhibition at 30 µM worked out at 0% in test [1] and 50% in test [2] (test compound 30 μmol). Further, the inhibition at 100 µM in test [1] is 10%; in test [2], 90%.
In the case of `CC(C)(C)N(CCO)CCC(=O)c1ccc(Br)s1` [Example 294, 2-(N-2-hydroxyethyl-t-butyl)aminoethyl-5-bromo-2-thienylketone], the inhibition at 10 µM in test [1] is 0%. The values for the inhibition at 100 µM in test [1] and in test [2] were 10% and 50%, respectively. The “IICR level (percentage of inhibition)” value came to 70% in test [2] (test compound 10 μmol) and 40% in test [2] (test compound 30 μmol).
For the molecule `CC(C)N(CCC(=O)n1nnc2ccccc21)Cc1ccccc1` [Example 295, 2-(N-isopropylbenzyl)aminoethyl-1-benzotriazoketone], the inhibition at 10 µM in test [1] came to 0%; in test [2] (test compound 10 μmol) it was 80%. In addition, the inhibition at 30 µM in test [1] worked out at 0%; in test [2] (test compound 30 μmol), 70%. In addition, the inhibition at 100 µM in test [1] is 0%; in test [2], 60%.
Consider `O=C(CCN(CCO)CCO)n1nnc2ccccc21` [Example 296, 2-bis(N-2-hydroxyethyl)aminoethyl-1-benzotriazoketone], for which the inhibition at 10 µM in test [1] and in test [2] (test compound 10 μmol) was 0% in each case. The inhibition at 30 µM came out at 0% in test [1] and 50% in test [2] (test compound 30 μmol). Moreover, the inhibition at 100 µM in test [1] stood at 20%; in test [2], 60%.
